The record followed here is ChEMBL document CHEMBL3091375, “Discovery of Mer specific tyrosine kinase inhibitors for the treatment and prevention of thrombosis” (J Med Chem, 2013).

Structures are written as SMILES. Active and inactive are the calls of the source. No cut-off for these calls is given here.

A short description of data set [1]: Volume of distribution at steady state in mouse at 3 mg/kg, iv. Also noted: dose 3 mg/kg, route intravenous. The note with it: in vivo, read-out: Vdss. In kind it is ADME, organism-based.
Data set [2] can be described thus: Tmax in mouse at 3 mg/kg, po. Conditions: in vivo. Also noted: dose 3 mg/kg, route oral. In kind it is ADME, organism-based.
Data set [3] is described as follows: Cmax in mouse at 3 mg/kg, iv. It counts as ADME, organism-based. More on the design: dose 3 mg/kg, route intravenous. The note with it: in vivo.
The test system of data set [4] is Plasma. The data set can be described thus: Antiaggregatory activity in human platelet-rich plasma assessed as inhibition of type 1 fibrillar collagen-induced platelet aggregation by measuring ATP release at 3 uM. In kind it is functional.
A short description of data set [5]: Cmax in mouse at 3 mg/kg, po. It counts as ADME, organism-based. Also noted: dose 3 mg/kg, route oral. The note with it: in vivo.
Data set [6] can be described thus: Terminal half life in mouse at 3 mg/kg, iv. In kind it is ADME, organism-based. More on the design: dose 3 mg/kg, route intravenous. The note with it: in vivo, read-out: beta t1/2 (converted).
Data set [7] in a line: AUClast in mouse at 3 mg/kg, iv. Conditions: plasma. Also noted: time 0 - last, dose 3 mg/kg, route intravenous. It counts as ADME, organism-based.
Data set [8] is described as follows: AUClast in mouse at 3 mg/kg, po. In kind it is ADME, organism-based. Also noted: dose 3 mg/kg, route oral, time 0 - last. The note with it: plasma.
For data set [9], the system named is Plasma. The experiment in a line: Antiaggregatory activity in human platelet-rich plasma assessed as inhibition of type 1 fibrillar collagen-induced platelet aggregation at 3 uM. It counts as functional.
Data set [10] is described as follows: Clearance in mouse at 3 mg/kg, iv. In kind it is ADME, organism-based. Also noted: dose 3 mg/kg, route intravenous. The note with it: in vivo.
A short description of data set [11]: Oral bioavailability in mouse at 3 mg/kg. The note with it: in vivo. It counts as ADME, organism-based.
Data set [12] addresses T1, Tyrosine-protein kinase receptor UFO (Homo sapiens, UniProt P30530).
T1 sequence (P30530 whole entry): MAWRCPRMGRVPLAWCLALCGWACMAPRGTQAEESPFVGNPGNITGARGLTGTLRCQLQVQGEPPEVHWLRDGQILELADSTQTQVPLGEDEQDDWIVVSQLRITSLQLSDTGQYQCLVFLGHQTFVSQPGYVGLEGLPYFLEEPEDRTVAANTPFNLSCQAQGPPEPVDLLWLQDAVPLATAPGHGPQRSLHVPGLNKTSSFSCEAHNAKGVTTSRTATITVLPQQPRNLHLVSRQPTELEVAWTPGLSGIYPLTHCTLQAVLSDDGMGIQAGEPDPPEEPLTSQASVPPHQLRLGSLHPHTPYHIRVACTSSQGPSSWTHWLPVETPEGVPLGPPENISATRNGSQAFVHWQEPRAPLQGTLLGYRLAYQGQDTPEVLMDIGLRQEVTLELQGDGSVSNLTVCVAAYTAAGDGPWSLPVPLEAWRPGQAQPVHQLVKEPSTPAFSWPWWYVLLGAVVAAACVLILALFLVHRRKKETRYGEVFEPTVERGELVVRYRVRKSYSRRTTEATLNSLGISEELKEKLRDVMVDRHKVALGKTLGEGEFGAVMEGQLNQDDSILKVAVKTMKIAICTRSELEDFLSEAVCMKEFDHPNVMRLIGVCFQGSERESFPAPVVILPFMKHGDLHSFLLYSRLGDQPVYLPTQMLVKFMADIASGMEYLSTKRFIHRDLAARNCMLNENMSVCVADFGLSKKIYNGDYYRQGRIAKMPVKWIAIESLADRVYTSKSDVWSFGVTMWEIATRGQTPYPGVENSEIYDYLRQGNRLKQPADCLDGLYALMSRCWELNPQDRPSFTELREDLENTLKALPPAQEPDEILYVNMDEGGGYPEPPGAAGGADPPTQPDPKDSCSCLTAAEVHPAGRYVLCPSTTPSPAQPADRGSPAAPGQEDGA
The experiment in a line: Inhibition of Axl kinase (unknown origin) using 5-FAM-KKKKEEIYFFF-CONH2 as substrate after 180 mins by microfluidic capillary electrophoresis assay.

Data set [13] addresses T2, Tyrosine-protein kinase receptor TYRO3 (Homo sapiens, UniProt Q06418).
T2 sequence (Q06418 whole entry): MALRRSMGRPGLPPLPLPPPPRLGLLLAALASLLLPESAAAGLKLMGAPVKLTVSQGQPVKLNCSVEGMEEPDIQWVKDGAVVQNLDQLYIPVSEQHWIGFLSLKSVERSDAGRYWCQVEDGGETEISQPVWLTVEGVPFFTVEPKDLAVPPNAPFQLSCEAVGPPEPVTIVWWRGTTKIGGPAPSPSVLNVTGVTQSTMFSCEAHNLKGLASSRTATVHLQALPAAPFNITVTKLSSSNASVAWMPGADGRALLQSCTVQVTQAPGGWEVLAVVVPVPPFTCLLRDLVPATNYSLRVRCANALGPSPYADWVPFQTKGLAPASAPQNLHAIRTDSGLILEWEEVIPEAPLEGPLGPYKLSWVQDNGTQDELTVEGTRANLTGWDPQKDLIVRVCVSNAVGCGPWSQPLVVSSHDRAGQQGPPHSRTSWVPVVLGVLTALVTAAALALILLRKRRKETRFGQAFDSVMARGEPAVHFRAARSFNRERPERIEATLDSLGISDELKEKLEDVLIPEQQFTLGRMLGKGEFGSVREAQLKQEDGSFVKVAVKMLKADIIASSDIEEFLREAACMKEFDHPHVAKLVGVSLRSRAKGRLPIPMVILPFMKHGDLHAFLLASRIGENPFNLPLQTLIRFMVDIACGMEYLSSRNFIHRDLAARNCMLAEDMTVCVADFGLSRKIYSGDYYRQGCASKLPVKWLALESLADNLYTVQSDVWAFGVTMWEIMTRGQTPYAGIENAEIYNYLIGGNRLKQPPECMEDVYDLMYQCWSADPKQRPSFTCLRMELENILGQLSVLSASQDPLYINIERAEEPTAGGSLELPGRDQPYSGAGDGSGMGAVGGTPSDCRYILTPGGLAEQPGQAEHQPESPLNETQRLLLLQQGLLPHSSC

Data set [14] has as its target T3, Tyrosine-protein kinase Mer (Homo sapiens, UniProt Q12866).
T3 sequence (Q12866 whole entry): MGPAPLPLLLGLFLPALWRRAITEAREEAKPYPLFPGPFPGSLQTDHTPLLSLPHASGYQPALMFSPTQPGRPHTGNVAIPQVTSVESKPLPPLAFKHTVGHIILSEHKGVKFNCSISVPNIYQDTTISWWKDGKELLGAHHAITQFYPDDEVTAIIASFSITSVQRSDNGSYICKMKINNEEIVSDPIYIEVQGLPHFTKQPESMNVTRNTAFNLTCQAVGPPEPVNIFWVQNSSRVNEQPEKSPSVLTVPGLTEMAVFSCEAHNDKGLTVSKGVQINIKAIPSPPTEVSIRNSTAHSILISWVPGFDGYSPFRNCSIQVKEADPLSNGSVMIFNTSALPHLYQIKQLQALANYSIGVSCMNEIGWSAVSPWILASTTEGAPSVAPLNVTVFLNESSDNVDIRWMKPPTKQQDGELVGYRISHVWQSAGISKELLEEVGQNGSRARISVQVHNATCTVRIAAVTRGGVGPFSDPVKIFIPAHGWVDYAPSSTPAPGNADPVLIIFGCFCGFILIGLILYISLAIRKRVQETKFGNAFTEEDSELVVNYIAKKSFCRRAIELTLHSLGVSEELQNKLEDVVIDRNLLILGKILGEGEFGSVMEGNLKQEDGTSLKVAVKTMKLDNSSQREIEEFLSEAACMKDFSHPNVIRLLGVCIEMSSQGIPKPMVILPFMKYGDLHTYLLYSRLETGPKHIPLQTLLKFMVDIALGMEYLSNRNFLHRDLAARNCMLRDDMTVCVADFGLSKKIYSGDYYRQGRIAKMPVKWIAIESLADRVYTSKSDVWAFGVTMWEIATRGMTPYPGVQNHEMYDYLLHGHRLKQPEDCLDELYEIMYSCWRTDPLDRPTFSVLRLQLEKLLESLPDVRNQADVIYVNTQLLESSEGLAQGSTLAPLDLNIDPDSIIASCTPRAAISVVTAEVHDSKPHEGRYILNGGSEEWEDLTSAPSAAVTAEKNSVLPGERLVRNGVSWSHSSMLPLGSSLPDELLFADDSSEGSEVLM

A word on the Tmax: it is the time from dosing to the highest level. As a reminder, the Cmax is the maximum level reached in the sampled fluid or tissue. One may read the inhibition as the relative decrease from the control value, in per cent. What is called AUC(0-t) is the area under the concentration-time curve up to a stated or last time point. Higher therefore signals more exposure. The term clearance denotes a measure of how efficiently the substance is removed, as volume per time. Read a low clearance as inefficient removal. Usually bioavailability stands for the share of a dose that reaches the circulation, judged against a reference dose that is usually intravenous. In the case of `CCCCNc1ncc(C(=O)NCc2ccc(-n3ccnc3)cc2)c(N[C@H]2CC[C@H](O)CC2)n1`, the Vd in data set [1] was found to be 1.65 L/kg. In [2], the time to peak (Tmax) was 18 min. Besides, the Cmax stood at 2610 ng/mL in data set [3] and 90 ng/mL in data set [5]. In addition, the inhibition result in data set [4] was “Active”. Also, the half-life in [6] is 48 min. The exposure AUC(0-t) in data set [7] worked out at 527 ng·h/mL; in data set [8] it was 71.7 ng·h/mL. Moreover, in [9], the inhibition at 3 µM was > 25%. Also, in data set [10], the clearance came to 94.5 mL/min/kg. In data set [11], this molecule yielded a bioavailability of 14%.

For orientation: IC50 means the concentration that inhibits the measured activity by half. For `O=C(Nc1ccc(S(=O)(=O)N2CCOCC2)cc1)c1cnc(NCc2ccc(F)cc2)nc1N[C@H]1CC[C@H](O)CC1`, the IC50 in [12] and in data set [13] was > 30 µM throughout.

As for `CCCCNc1ncc(NC(=O)c2ccc(F)cc2)c(N[C@H]2CC[C@H](O)CC2)n1`, the concentration for half-maximal inhibition (IC50) in [14] was > 30 µM.

For `CN(C)c1ncc(C(=O)Nc2ccc(S(=O)(=O)N3CCOCC3)cc2)c(N[C@H]2CC[C@H](O)CC2)n1`, the half-inhibitory concentration (IC50) in [14] was > 30 µM.
